In patent US7932274B2, “3-indazolyl-4-pyridylisothiazoles” (Eli Lilly and Company, priority 2008, dated 2011):
pIC50: −log10 of the molar value.

What was measured:
human mGluR5 = molecular target: T1, human mGluR5 (Homo sapiens, UniProt P41594); assay: Functional in vitro activity at human mGluR5 receptors (FLIPR calcium assay, antagonism of glutamate EC90 response); format: cell-based; conditions: AV-12 cells expressing recombinant human mGluR5a and rat EAAT1, relative IC50, read-out: IC50 measured at mGluR5
T1 construct: expressed in transfected cells; host or cells: AV-12 cells (ATCC) containing the rat EAAT1 glutamate transporter
T1 sequence (P41594 21-1180 isoform P41594-2 limits assumed): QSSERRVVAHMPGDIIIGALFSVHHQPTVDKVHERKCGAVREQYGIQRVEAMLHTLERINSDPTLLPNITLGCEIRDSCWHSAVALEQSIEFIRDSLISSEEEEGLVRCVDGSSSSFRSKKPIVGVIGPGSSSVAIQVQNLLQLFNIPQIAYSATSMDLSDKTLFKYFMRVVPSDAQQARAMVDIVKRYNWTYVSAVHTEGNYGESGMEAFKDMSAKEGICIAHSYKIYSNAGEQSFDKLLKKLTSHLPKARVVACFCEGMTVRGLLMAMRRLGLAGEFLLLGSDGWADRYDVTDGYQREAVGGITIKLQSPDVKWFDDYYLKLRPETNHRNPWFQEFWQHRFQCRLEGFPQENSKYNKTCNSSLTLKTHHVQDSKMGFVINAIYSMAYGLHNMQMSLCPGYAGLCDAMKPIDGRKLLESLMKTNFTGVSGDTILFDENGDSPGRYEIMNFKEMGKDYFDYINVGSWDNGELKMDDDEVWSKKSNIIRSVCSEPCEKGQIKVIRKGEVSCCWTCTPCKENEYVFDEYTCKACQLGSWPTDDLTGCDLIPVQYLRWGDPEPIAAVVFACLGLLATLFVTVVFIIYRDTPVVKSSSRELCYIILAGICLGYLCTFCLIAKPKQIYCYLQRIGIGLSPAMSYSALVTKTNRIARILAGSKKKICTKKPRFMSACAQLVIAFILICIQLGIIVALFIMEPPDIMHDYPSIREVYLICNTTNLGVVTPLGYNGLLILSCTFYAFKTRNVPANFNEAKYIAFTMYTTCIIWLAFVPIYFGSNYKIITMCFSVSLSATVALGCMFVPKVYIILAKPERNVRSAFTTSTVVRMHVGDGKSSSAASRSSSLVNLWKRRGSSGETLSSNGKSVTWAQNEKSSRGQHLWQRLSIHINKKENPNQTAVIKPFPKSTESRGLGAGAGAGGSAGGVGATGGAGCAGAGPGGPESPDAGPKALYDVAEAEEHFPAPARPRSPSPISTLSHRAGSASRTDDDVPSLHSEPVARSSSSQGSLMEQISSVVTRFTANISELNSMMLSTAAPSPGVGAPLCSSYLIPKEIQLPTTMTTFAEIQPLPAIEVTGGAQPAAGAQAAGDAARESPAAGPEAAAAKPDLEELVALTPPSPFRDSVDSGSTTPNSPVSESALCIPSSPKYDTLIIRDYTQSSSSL
Source text: Functional in Vitro Activity at Human mGluR5; and mGluR1; Receptors
The activation of G-protein coupled receptors (GPCRS) that are coupled to GTP-binding protein alpha q (Gq proteins) results in a change in intracellular calcium concentration. This functional response can be measured in a kinetic assay using calcium-sensitive dyes and a fluorescent imaging plate reader using a standard technique known as FLIPR (MDS Analytical Technologies, Sunnyvale, Calif.). Stable cell line preparation and assay techniques are adapted from Kingston, A. E., et. al. (1995) Neuropharmacology 34: 887-894. […]
For the functional assays, cells are seeded in growth medium lacking selection antibiotics at a density of 65K per well into 96-well, black/clear bottom, poly-D-lysine coated microplates and incubated for 18-20; hours prior to the experiment. […] The antagonist effects of compounds are quantified in the FLIPR instrument in 10-point dose curves by comparing the peak fluorescent responses to the agonist glutamate in the presence and absence of compound. Specifically, the compound effect is measured as maximal minus minimal peak heights in relative fluorescent units corrected for basal fluorescence as measured in the absence of glutamate. […]

[1] = system: stress-induced hyperthermia in rats; assay: Attenuation of stress-induced hyperthermia in rats; format: in vivo, rat; conditions: male Fischer F-344 rats, p.o., 60 min pretreatment, T2-T1 rectal temperature
Source text: Attenuation of Stress-Induced Hyperthermia in Rats
In many anxiety disorders, hyperthermia occurs as part of the pathology and is considered a symptom of the disease. Compounds which attenuate stress-induced hyperthermia in animals are believed to be useful in treating anxiety disorders in humans.
The conventional and minimally-invasive method for analyzing stress-induced hyperthermia is by measuring body temperature, and stress-induced increases in body temperature, via rectal thermometer. Male Fischer F-344; rats (Harlan, Indianapolis, Ind., USA) weighing between 275-350; g are tested. All animals are individually-housed with food and automated water available ad libitum, and maintained on a 12; h light/dark cycle (lights on at 06:00). Animals are fasted for approximately 12-18; hours before the experiment, which is conducted during the light phase. […]
After the pretreatment period, rats are taken individually to a brightly lit adjacent room where baseline body temperatures are determined by insertion of a rectal probe lubricated with mineral oil. Body temperature is assessed using a PHYSITEMP BAT-12® Microprobe Thermometer with a PHYSITEMP RET-2® rat rectal probe (Physitemp Instruments Inc., Clifton, N.J., USA). […] Ten minutes later a second body temperature measurement is recorded (T2). […]

Compound	pIC50 (human mGluR5)	T35 dose (dose producing a 35% reduction in stress-induced hyperthermic response relative to vehicle) [1]	melting point
CCc1cccc(-c2c(-c3ccc4nn(C)cc4c3)nsc2NC(=O)[C@@H]2C[C@H]2C)n1.Cl [Example 2, (1R,2R)-2-methyl-cyclopropanecarboxylic acid [4-(6-ethyl-pyridin-2-yl)-3-(2-methyl-2H-indazol-5-yl)-isothiazol-5-yl]-amide hydrochloride]	8.02	3.0 mg/kg	
CCc1cccc(-c2c(-c3ccc4nn(C)cc4c3)nsc2NC(=O)[C@@H]2C[C@H]2C)n1 [Example 22, (1R,2R)-2-methyl-cyclopropanecarboxylic acid [4-(6-ethyl-pyridin-2-yl)-3-(2-methyl-2H-indazol-5-yl)-isothiazol-5-yl]-amide]			159.4 °C
CC(C)c1cccc(-c2c(-c3ccc4nn(C)cc4c3)nsc2NC(=O)[C@@H]2C[C@H]2C)n1 [Example 23, (1R,2R)-2-methyl-cyclopropanecarboxylic acid [4-(6-isopropyl-pyridin-2-yl)-3-(2-methyl-2H-indazol-5-yl)-isothiazol-5-yl]-amide]			142 to 144 °C
